Source: patent publication US20230285493A1, “ANTIMICROBIAL COMPOSITION” (Mootral SA, priority 2014, published 2023)

Tests used:
Assay in all cases: modified broth dilution assay, 96-well plates (MIC)
Assay type in all cases: cell-based
Klebsiella pneumonia = details: Klebsiella pneumoniae, overnight 37.0° C., absorbance 600 nm
Description: (§1) In order to determine the minimal inhibitory concentration (MIC) for the bioflavonoids (BC), allicin (AL) and ajoene (AJ) on selected Gram-positive bacteria, Gram-negative bacteria and yeast, a modified broth dilution assay using 96-well plates, according to Wiegand, Hilpert and Hancock (2008), was performed.
(§2) The microorganisms for the study were obtained from Cardiff University. The cultures used in the study were prepared by aseptic inoculation of microorganisms from pure plate cultures into 50 ml of sterile nutrient broth. The cultures were incubated overnight at 37.0° C. without agitation. Prior to use the cultures were washed by centrifugation in a desk top centrifuge at 3000 RPM for 15 minutes and the pellet resuspended in sterile saline (0.85% NaCl).
(§3) In order to determine the activity of the compounds both individually as well as in combination, a range of concentrations of each compound was used in a doubling dilution. The highest concentration used was dependent on the organism in question (whether Gram-positive bacteria, Gram-negative bacteria or yeast). From the highest concentration used in the test the samples were diluted five times in order to give six different concentrations per compound.
(§4) The allicin samples were aqueous solutions and were therefore diluted directly using H2O. However, the ajoene was in oil form and the bioflavonoids were in powder form, neither of which were water soluble. Before dilution the ajoene and bioflavonoids were solubilised by creation of a stock solution using 80% DMSO.
(§5) The wells on the 96-well plates were prepared in triplicate as follows: the AL, AJ and BC were pre-diluted in Eppendorf tubes at 10× the required final concentration. 20 μl of each dilution was added per well to give a 1:10 dilution in the final 200 μl per well. A matrix of concentrations of mixtures of allicin:bioflavonoid, ajoene:bioflavonoid and allicin:ajoene:bioflavonoid was used, with the dilution gradients of allicin and ajoene running inversely to bioflavonoids.
(§6) 130 μl of sterile nutrient broth (Nutrient Broth No. 3 (Sigma 70149)) was added to each well.
(§7) 50 μl of each microorganism suspended in saline was added to each well (except for the negative control). Each species of microorganism was added to two plates, the first for the individual (control) assays and the second for the matrix study. The plates were incubated at 37.0° C. overnight without agitation.
(§8) The plates were scanned individually using a Tecan plate reader at 600 nm and the absorbance recorded in a comma-delimited file for analysis.
(§9) The absorbance for each sample was compared to the growth (absorbance) of the control cultures (without treatment) in order to determine the MIC (all values blanked against negative control to negate absorbance of plate and broth). The mean and standard deviation of the triplicate experiments were determined and the means plotted on scatter diagrams for comparison.

Candida tropicalis = details: overnight 37.0° C., absorbance 600 nm
Description: as §1, §2, §3, §4, §5, §6, §7, §8, §9

Bacillus subtilis = details: overnight 37.0° C., absorbance 600 nm
Description: as §1, §2, §3, §4, §5, §6, §7, §8, §9

Pseudomonas aeruginosa = details: overnight 37.0° C., absorbance 600 nm
Description: as §1, §2, §3, §4, §5, §6, §7, §8, §9

Staphylococcus aureus = details: overnight 37.0° C., absorbance 600 nm
Description: as §1, §2, §3, §4, §5, §6, §7, §8, §9

Escherichia coli = details: overnight 37.0° C., absorbance 600 nm
Description: as §1, §2, §3, §4, §5, §6, §7, §8, §9

| SMILES | MIC (Klebsiella pneumonia) [µg/mL] | MIC (Candida tropicalis) [µg/mL] | MIC (Bacillus subtilis) [µg/mL] | MIC (Pseudomonas aeruginosa) [µg/mL] | MIC (Staphylococcus aureus) [µg/mL] | MIC (Escherichia coli) [µg/mL] |
| --- | --- | --- | --- | --- | --- | --- |
| C=CCSSC=CC[S+]([O-])CC=C (mixture of isomers) [Ajoene, (E,Z)-4,5,9-trithiadodeca-1,6,11-triene 9-oxide] | 12 | 24 | 24 | 12 | 48 | 24 |
| C=CCS[S+]([O-])CC=C (stereo not drawn) [Allicin, 2-Propene-1-sulfinothioic acid S-2-propenyl] | 46 | 9.2 | 9.2 | 9.2 | 27.6 | 18.4 |
